pIC50: −log10 of the molar value.
How the values were obtained:
[1] = Antiproliferative activity against human MDA-MB-468 cells assessed as cell growth at 1 uM after 3 days by thymidine incorporation assay relative to control; assay type: functional; settings: MDA-MB-468, 72 h, read-out: Activity
[2] = Antiproliferative activity against human HCT116 cells assessed as cell growth at 1 uM after 3 days by thymidine incorporation assay relative to control; assay type: functional; settings: HCT-116, 72 h, read-out: Activity
[3] = Antiproliferative activity against human MDA-MB-231 cells assessed as cell growth at 1 uM after 3 days by thymidine incorporation assay relative to control; assay type: functional; settings: MDA-MB-231, 72 h, read-out: Activity
[4] = Growth inhibition of human MDA-MB-468 cells at 10 uM after 48 hrs by SRB assay relative to control; assay type: functional; settings: MDA-MB-468, 48 h, values are per cent of control
[5] = Growth inhibition of human HCT116 cells at 10 uM after 48 hrs by SRB assay relative to control; assay type: functional; settings: HCT-116, 48 h, values are per cent of control
[6] = Growth inhibition of human MDA-MB-231 cells at 10 uM after 48 hrs by SRB assay relative to control; assay type: functional; settings: MDA-MB-231, 48 h, read-out: GI
[7] = Antiproliferative activity against human HCT116 cells after 3 days by thymidine incorporation assay; assay type: functional, cell-based; settings: HCT-116, 72 h
[8] = Antiproliferative activity against human MDA-MB-231 cells after 3 days by thymidine incorporation assay; assay type: functional, cell-based; settings: MDA-MB-231, 72 h
[9] = Antiproliferative activity against human MDA-MB-468 cells after 3 days by thymidine incorporation assay; assay type: functional, cell-based; settings: MDA-MB-468, 72 h
[10] = Antiproliferative activity against human K562 cells after 3 days by thymidine incorporation assay; assay type: functional, cell-based; settings: K562, 72 h

Row | Structure (SMILES) | growth at 1 µM [1] [%] | growth at 1 µM [2] [%] | growth at 1 µM [3] [%] | growth, % of control at 10 µM [4] [%] | growth, % of control at 10 µM [5] [%] | inhibition of growth at 10 µM [6] [%] | pIC50 [7] | pIC50 [8] | pIC50 [9] | pIC50 [10]
1 | O=c1c2sc3nc4c(cc3c2nnn1-c1ccccc1Cl)CCCCCCCC4 | 82 | 97 | 91 | – | – | – | – | – | – | –
2 | CC(=O)OC1CCCc2nc3sc4c(=O)n(-c5ccccc5Cl)nnc4c3cc21 (stereo not drawn) | 93 | 98 | 95 | – | – | – | – | – | – | –
3 | O=C1CCCc2nc3sc4c(=O)n(-c5ccccc5Cl)nnc4c3cc21 | 91 | 97 | 97 | 86 | 96 | 94 | – | – | – | –
4 | Cc1nc2sc(C(=O)Nc3ccccc3Cl)c(N)c2cc1C(C)O (stereo not drawn) | 96 | 97 | 108 | – | – | – | – | – | – | –
5 | Nc1c(C(=O)Nc2ccccc2Cl)sc2nc3c(cc12)CCCCCCCC3 | 78 | 91 | 104 | – | – | – | – | – | – | –
6 | O=c1c2sc3nc4c(cc3c2nnn1-c1ccccc1Cl)CCCCCC4 | 85 | 90 | 92 | – | – | – | – | – | – | –
7 | O=c1c2sc3nc4c(cc3c2nnn1-c1ccccc1Cl)CCCC4 | 81 | 99 | 94 | 88 | 88 | 81 | – | – | – | –
8 | Nc1c(C(=O)Nc2ccccc2Cl)sc2nc3c(cc12)CCCCC3 | 81 | 94 | 101 | – | – | – | – | – | – | –
9 | O=c1c2sc3nc4c(cc3c2nnn1-c1ccccc1Cl)CCCCC4 | 90 | 99 | 105 | – | – | – | – | – | – | –
10 | CC(=O)c1cc2c(nc1C)sc1c(=O)n(-c3ccccc3Cl)nnc12 | 96 | 98 | 103 | – | – | – | – | – | – | –
11 | CC(=O)c1cc2c(N)c(C(=O)Nc3ccccc3Cl)sc2nc1C | 104 | 87 | 100 | – | – | – | – | – | – | –
12 | Nc1c(C(=O)Nc2ccccc2Cl)sc2nc3c(cc12)CCCCCC3 | 100 | 71 | 56 | – | – | – | – | – | – | –
13 | O=c1c2sc3nc4c(cc3c2nnn1-c1ccccc1Cl)C(O)CCC4 (stereo not drawn) | 80 | 96 | 91 | 91 | 102 | 86 | – | – | – | –
14 | Nc1c(C(=O)Nc2ccccc2Cl)sc2nc3c(cc12)C(O)CCC3 (stereo not drawn) | 14 | 11 | 30 | 26 | 30 | 58 | 6.21 | 6.17 | 6.26 | 6.37
15 | Nc1c(C(=O)Nc2ccccc2Cl)sc2nc3c(cc12)C(=O)CCC3 | 94 | 99 | 104 | 25 | 76 | 70 | – | – | – | –
16 | CC(=O)OC1CCCc2nc3sc(C(=O)Nc4ccccc4Cl)c(N)c3cc21 (stereo not drawn) | 7 | 3 | 10 | – | – | – | 6.74 | 6.70 | 6.74 | 6.72
17 | CC(=O)OC1CCCc2nc3sc4c(=O)n(-c5ccccc5Cl)c(C)nc4c3cc21 (stereo not drawn) | 64 | 92 | 82 | – | – | – | – | – | – | –
18 | Cc1nc2sc3c(=O)n(-c4ccccc4Cl)nnc3c2cc1C(C)O (stereo not drawn) | 118 | 100 | 100 | – | – | – | – | – | – | –
19 | Nc1c(C(=O)Nc2ccccc2Cl)sc2nc3c(cc12)CCCC3 | 95 | 94 | 119 | 91 | 107 | 100 | – | – | – | –
